For the assay, the target named is T1, Human pyruvate kinase R (PKR) (Homo sapiens, UniProt P30613).
T1 construct: Human pyruvate kinase R (PKR), residues 14-574; 6x-His (N, cleaved yes); 8x-Arg (N, cleaved yes); SUMO (N, cleaved yes); host or cells: E. coli
Briefly: Biochemical assay for activation of pyruvate kinase R (Kinase-Glo luminescence measurement of ATP generation). The following applies: for AC50: PKR biochemical assay, 0.1 nM PKR, 0.3 mM ADP, 2 mM FBP, 0.1 mM PEP; for Emax: maximal activation level relative to the activation level achieved by the literature compound AG-348 @ 10 μM. In a few lines:
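Recombinant human PKR (residues 14-574), E. coli-expressed with His-Arg-SUMO tag removed, purified by Ni-NTA, anion exchange and size exclusion. Activation measured as ATP generation via Kinase-Glo luminescence.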

T1 sequence (P30613 14-574): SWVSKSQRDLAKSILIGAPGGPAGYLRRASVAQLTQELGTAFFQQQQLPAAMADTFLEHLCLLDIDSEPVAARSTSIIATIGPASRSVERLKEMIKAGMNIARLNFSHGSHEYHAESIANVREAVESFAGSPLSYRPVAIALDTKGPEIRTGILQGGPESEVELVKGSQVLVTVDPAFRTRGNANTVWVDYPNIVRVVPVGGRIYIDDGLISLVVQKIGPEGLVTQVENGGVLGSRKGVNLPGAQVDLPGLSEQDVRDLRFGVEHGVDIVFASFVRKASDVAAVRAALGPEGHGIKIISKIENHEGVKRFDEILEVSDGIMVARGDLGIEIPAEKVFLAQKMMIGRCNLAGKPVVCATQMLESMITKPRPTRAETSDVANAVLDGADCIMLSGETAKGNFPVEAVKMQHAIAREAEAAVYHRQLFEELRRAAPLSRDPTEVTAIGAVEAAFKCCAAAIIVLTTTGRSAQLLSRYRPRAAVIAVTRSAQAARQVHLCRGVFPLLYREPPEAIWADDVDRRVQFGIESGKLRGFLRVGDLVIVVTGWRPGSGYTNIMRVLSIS

The compound `O=C(NCc1nnnn1-c1ccc(C(F)(F)F)cc1)NCc1nnnn1-c1ccc(C(F)(F)F)cc1` [Compound 115, 1,3-bis({1-[4-(trifluoromethyl)phenyl]-1H-1,2,3,4-tetrazol-5-yl}methyl)urea] gave an AC50 of 1700 nM and an Emax of 148%.

The compound `O=C(NCC1=NC2(CC2)C(=O)N1Cc1ccc(F)cc1)NCc1ncnn1-c1ccc(Cl)c(F)c1` [Compound 109, 1-{[1-(4-chloro-3-fluorophenyl)-1H-1,2,4-triazol-5-yl]methyl}-3-({6-[(4-fluorophenyl)methyl]-7-oxo-4,6-diazaspiro[2.4]hept-4-en-5-yl}methyl)urea] came in with a concentration at half-maximal activity (AC50) of 110 nM and an Emax of 96%.

The compound `O=C(NCc1ncnn1-c1ccc(O)nc1)NCc1ncnn1-c1ccc(Cl)c(F)c1` [Compound 119, 3-{[1-(4-chloro-3-fluorophenyl)-1H-1,2,4-triazol-5-yl]methyl}-1-{[1-(6-hydroxypyridin-3-yl)-1H-1,2,4-triazol-5-yl]methyl}urea] returned an AC50 of 1100 nM and an Emax of 31%.

As for `Cc1nc(CNC(=O)NCc2ncnn2CC2(O)CCCCC2)n(-c2ccc(Cl)c(F)c2)n1` [Compound 23, 3-{[1-(4-chloro-3-fluorophenyl)-3-methyl-1H-1,2,4-triazol-5-yl]methyl}-1-({1-[(1-hydroxycyclohexyl)methyl]-1H-1,2,4-triazol-5-yl}methyl)urea], the AC50 amounted to 230 nM and the Emax is 72%.

The compound `Cc1ccc(-n2ncnc2CNC(=O)NCc2ncnn2-c2ccc(C)nc2)cn1` [Compound 74, 1,3-bis({[1-(6-methylpyridin-3-yl)-1H-1,2,4-triazol-5-yl]methyl})urea] gave an AC50 of 2800 nM and an Emax of 36%.

For the compound `CCN(Cc1ncnn1-c1cnc2ccccc2c1)C(=O)NCc1nc(C)nn1-c1ccc(Cl)c(F)c1` [Compound 142, 1-{[1-(4-chloro-3-fluorophenyl)-3-methyl-1H-1,2,4-triazol-5-yl]methyl}-3-ethyl-3-{[1-(quinolin-3-yl)-1H-1,2,4-triazol-5-yl]methyl}urea], half-maximal activity (AC50) was put at 250 nM and the Emax was 127%.

In the case of `Cc1nc(CNC(=O)NCc2ncnn2-c2ccc3cncnc3c2)n(-c2ccc(Cl)c(F)c2)n1` [Compound 88, 1-{[1-(4-chloro-3-fluorophenyl)-3-methyl-1H-1,2,4-triazol-5-yl]methyl}-3-{[1-(quinazolin-7-yl)-1H-1,2,4-triazol-5-yl]methyl}urea], half-maximal activity (AC50) was put at 70 nM and the Emax came to 68%.

`Cc1nc(CNC(=O)NCc2nc(C3CC3)nn2-c2ccc3cccnc3c2)n(-c2ccc(Cl)c(F)c2)n1` [Compound 55, 3-{[1-(4-chloro-3-fluorophenyl)-3-methyl-1H-1,2,4-triazol-5-yl]methyl}-1-{[3-cyclopropyl-1-(quinolin-7-yl)-1H-1,2,4-triazol-5-yl]methyl}urea] registered an AC50 of 79 nM and an Emax of 90%.

Consider `COc1ccc(-n2ncnc2CNC(=O)NCc2ncnn2-c2ccc(OC)nc2)cn1` [Compound 117, 1,3-bis({[1-(6-methoxypyridin-3-yl)-1H-1,2,4-triazol-5-yl]methyl})urea], for which the AC50 stood at 2600 nM and the Emax is 53%.

Consider `Cc1nc(CNC(=O)NCc2ncnn2-c2ccc(C3CCC3)nc2)n(-c2ccc(Cl)c(F)c2)n1` [Compound 132, 1-{[1-(4-chloro-3-fluorophenyl)-3-methyl-1H-1,2,4-triazol-5-yl]methyl}-3-{[1-(6-cyclobutylpyridin-3-yl)-1H-1,2,4-triazol-5-yl]methyl}urea], for which the activity was half-maximal at 490 nM (AC50) and the Emax is 64%.

In the case of `Cc1nc(CNC(=O)NCC2=NC3(CCC3)C(=O)N2c2ccc3cccnc3c2)n(-c2ccc(Cl)c(F)c2)n1` [Compound 112, 1-{[1-(4-chloro-3-fluorophenyl)-3-methyl-1H-1,2,4-triazol-5-yl]methyl}-3-{[8-oxo-7-(quinolin-7-yl)-5,7-diazaspiro[3.4]oct-5-en-6-yl]methyl}urea], the AC50 is 802 nM and the Emax stood at 126%.

For `Cc1nc(CNC(=O)NCc2ncnn2-c2ccc3c(c2)ncn3C)n(-c2ccc(Cl)c(F)c2)n1` [Compound 44, 1-{[1-(4-chloro-3-fluorophenyl)-3-methyl-1H-1,2,4-triazol-5-yl]methyl}-3-{[1-(1-methyl-1H-1,3-benzodiazol-5-yl)-1H-1,2,4-triazol-5-yl]methyl}urea], the AC50 stood at 81 nM and the Emax was 94%.

Compound `O=C(NCc1ncnn1-c1ccc(Cl)c(F)c1)NCc1ncnn1C1CCOCC1` [Compound 5, 3-{[1-(4-chloro-3-fluorophenyl)-1H-1,2,4-triazol-5-yl]methyl}-1-{[1-(oxan-4-yl)-1H-1,2,4-triazol-5-yl]methyl}urea] showed an AC50 of 420 nM and an Emax of 47%.

On to `O=C(NCc1nc(CF)nn1-c1ccc(Cl)c(F)c1)NCc1n[nH]c(=O)n1-c1ccc(Cl)c(F)c1` [Compound 107, 1-{[1-(4-chloro-3-fluorophenyl)-3-(fluoromethyl)-1H-1,2,4-triazol-5-yl]methyl}-3-{[4-(4-chloro-3-fluorophenyl)-5-oxo-4,5-dihydro-1H-1,2,4-triazol-3-yl]methyl}urea], for which the AC50 was 30 nM and the Emax was found to be 107%.

Consider `Cc1ccc(-n2nnnc2CNC(=O)NCc2nnnn2-c2ccc(C)cc2F)c(F)c1` [Compound 114, 1,3-bis({[1-(2-fluoro-4-methylphenyl)-1H-1,2,3,4-tetrazol-5-yl]methyl})urea], for which half-maximal activity (AC50) was put at 670 nM and the Emax turned out to be 61%.

For the compound `Cc1nc(CNC(=O)N(C)Cc2ncnn2-c2ccc3cccnc3c2)n(-c2ccc(Cl)c(F)c2)n1` [Compound 54, 3-{[1-(4-chloro-3-fluorophenyl)-3-methyl-1H-1,2,4-triazol-5-yl]methyl}-1-methyl-1-{[1-(quinolin-7-yl)-1H-1,2,4-triazol-5-yl]methyl}urea], the AC50 was found to be 85 nM and the Emax is 71%.

`Cc1nc(CNC(=O)NCc2nc(C)nn2-c2ccc(Cl)c(F)c2)n(-c2ccc(Cl)c(F)c2)n1` [Compound 77, 1,3-bis({[1-(4-chloro-3-fluorophenyl)-3-methyl-1H-1,2,4-triazol-5-yl]methyl})urea] displayed an AC50 of 51 nM and an Emax of 93%.

In the case of `Cc1nc(CNC(=O)NCc2ncnn2CC2CCOC(C)(C)C2)n(-c2ccc(Cl)c(F)c2)n1` (stereo not shown) [Compound 14, 3-{[1-(4-chloro-3-fluorophenyl)-3-methyl-1H-1,2,4-triazol-5-yl]methyl}-1-({1-[(2,2-dimethyloxan-4-yl)methyl]-1H-1,2,4-triazol-5-yl}methyl)urea], half-maximal activity (AC50) was put at 1400 nM and the Emax was found to be 84%.

`O=C(NCc1ncnn1-c1ccc(Cl)c(F)c1)NCc1ncnn1-c1cnc2cc(F)ccc2c1` [Compound 145, 1-{[1-(4-chloro-3-fluorophenyl)-1H-1,2,4-triazol-5-yl]methyl}-3-{[1-(7-fluoroquinolin-3-yl)-1H-1,2,4-triazol-5-yl]methyl}urea] had an AC50 of 51 nM and an Emax of 76%.

`Cc1nc(CN(C)C(=O)NCc2ncnn2-c2ccc3cccnc3c2)n(-c2ccc(Cl)c(F)c2)n1` [Compound 53, 1-{[1-(4-chloro-3-fluorophenyl)-3-methyl-1H-1,2,4-triazol-5-yl]methyl}-1-methyl-3-{[1-(quinolin-7-yl)-1H-1,2,4-triazol-5-yl]methyl}urea] registered an AC50 of 120 nM and an Emax of 73%.

Compound `Cc1nc(CNC(=O)NCc2ncnn2-c2cc(F)c3nccnc3c2)n(-c2ccc(Cl)c(F)c2)n1` [Compound 101, 1-{[1-(4-chloro-3-fluorophenyl)-3-methyl-1H-1,2,4-triazol-5-yl]methyl}-3-{[1-(8-fluoroquinoxalin-6-yl)-1H-1,2,4-triazol-5-yl]methyl}urea] yielded an AC50 of 93 nM and an Emax of 77%.

`CN(Cc1nnnn1-c1ccc(Cl)c(F)c1)C(=O)NCc1ncnn1-c1ccc(Cl)c(F)c1` [Compound 32, 1-{[1-(4-chloro-3-fluorophenyl)-1H-1,2,3,4-tetrazol-5-yl]methyl}-3-{[1-(4-chloro-3-fluorophenyl)-1H-1,2,4-triazol-5-yl]methyl}-1-methylurea] gave an AC50 of 210 nM and an Emax of 74%.

For `CCN(Cc1ncnn1-c1ccc(OC)nc1)C(=O)NCc1ncnn1-c1ccc(Cl)c(F)c1` [Compound 122, 3-{[1-(4-chloro-3-fluorophenyl)-1H-1,2,4-triazol-5-yl]methyl}-1-ethyl-1-{[1-(6-methoxypyridin-3-yl)-1H-1,2,4-triazol-5-yl]methyl}urea], the AC50 came out at 190 nM and the Emax stood at 42%.

The compound `Cc1ccc2ccc(-n3ncnc3CNC(=O)NCc3nc(C)nn3-c3ccc(Cl)c(F)c3)cc2n1` [Compound 29, 3-{[1-(4-chloro-3-fluorophenyl)-3-methyl-1H-1,2,4-triazol-5-yl]methyl}-1-{[1-(2-methylquinolin-7-yl)-1H-1,2,4-triazol-5-yl]methyl}urea] displayed an AC50 of 110 nM and an Emax of 78%.

`O=C(NCc1nnnn1-c1ccc(Cl)cc1)NCc1nnnn1-c1ccc(Cl)cc1` [Compound 1, 1,3-bis({[1-(4-chlorophenyl)-1H-1,2,3,4-tetrazol-5-yl]methyl})urea] registered an AC50 of 189 nM and an Emax of 96%.

On to `O=C(NCc1nnnn1-c1ccc(Cl)c(F)c1)NCc1nnnn1-c1ccc(Cl)c(F)c1` [Compound 63, 1,3-bis({[1-(4-chloro-3-fluorophenyl)-1H-1,2,3,4-tetrazol-5-yl]methyl})urea], for which the AC50 was found to be 63 nM and the Emax was 99%.

In general, AC50 refers to the concentration at which the activity in the assay is half-maximal. The Emax is the maximal effect, on the per cent scale that the assay sets.

For the origin of these results see patent US20230278984A1 (Global Blood Therapeutics, Inc., priority 2020, published 2023).
